From patent US11013673B2, “Cosmetic compositions containing quinones and their topical use on skin and hair” (Repairogen Corp, priority 2016, dated 2021)

Columns and labels:
[1] = test system: primary human fibroblasts; experiment: cytotoxicity assay (Cell Titer96 Aqueous One) on fibroblasts; conditions: 24 h
Procedure: Normal human dermal adult fibroblasts derived from a donor of were purchased from CELLnTec (Bern, Switzerland) and grown in DMEM supplemented with 10% FBS (Life Technologies, CA, USA). Fibroblasts cultures were maintained at 37° C. with 5% CO2 and ˜95% humidity.
(§1) Cytotoxicity was evaluated using the Cell Titer96 Aqueous One (Promega, Wis., USA) basic test according to manufacturer's instructions. Cells were seeded at a density of 10,000 cells/well in a 96-well plate and cultured overnight. Treatments with seven doses of compounds were carried out for 24 hours, in triplicates. Colorimetric analysis was performed using an absorbance of 490 nm. Inhibition of viability of more than 20% of the control values was considered cytotoxic.
The cytotoxicity assay on primary human fibroblasts from adult donor was performed after 24 h of culture in the presence of different concentrations of each compound, as indicated in FIG. 2B and Table 2.

human fibroblasts = experiment: microarray analysis of differential gene expression in fibroblasts; format: cell-based
human fibroblast cell = experiment: Human Fibroblast Cell Assay: CPD ELISA of DNA damage after UVB; format: cell-based; conditions: UVB 35 mJ/cm^2, 12 hours
Procedure: Lastly, tests were conducted on human skin cells. The testing was performed using neonatal foreskin […], a type of skin cell that is a common model for skin testing across the cosmetic industry. The skin cells were purchased from Thermo Fisher Scientific Co. (NY) and grown in Dulbecco Modified Eagle Medium (DMEM) supplemented with 10% Fetal Bovine Serum (Thermo Fisher Scientific). Cultures were maintained at 37° C. within an air atmosphere of 5% carbon dioxide and about 95% humidity.
The skin cells were seeded in 12-well plates and incubated for 24 hours. After incubation, the cells were washed in […] (PBS) and irradiated with UVB at a dosage of 35 mJ/cm^2 using a Viber Lourmat BIO-Sun System (Marne-la-Vallee, France). The test compounds and control materials were added to the medium immediately following UVB irradiation; the treated mediums were allowed to continue for 12 hours at 37° C. under the air atmosphere with 5% carbon dioxide at about 95% humidity. In parallel, each test compound was added to non-irradiated cells as baseline controls. Untreated cells were used as negative controls. All treatments were performed in triplicate. Dosage levels for samples were 12.5 microMolar except lapachol dosed at 3 microMolar. Following incubation, the cells were washed with PBS, collected and stored at −80° C.
DNA was extracted from the collected cells using a QIAamp Blood Kit (QIAGEN, Calif., USA) in accordance with the manufacturer's protocol. The amounts of cyclobutane pyrimidine dimers (CPDs) in the various samples were determined by the CPD ELISA protocol. In accordance with this protocol, an OXISELECT® UV-Induced DNA Damage ELISA Kit (Cell Biolabs Inc., CA, USA) was employed for the testing done in accordance with the manufacturer's instructions. Amounts of CPD in UVB-treated samples were determined in percentage relative to the value of untreated fibroblasts. The greater the measured % CPD, the greater the DNA damage. Thus, in the Table below, the smaller the “Avg (% Untreated)” value, the better is the UVB damage induced inhibitory effect.
Mean standard deviation comparisons between data groups employed the GraphPad Prism 6.05 software (GraphPad Software, CA, USA). Statistical analysis was performed using ANOVA with Holm-Sidak's test or unpaired t-test with Welch's correction.

[2] = test system: human epidermal keratinocytes; experiment: microarray analysis of differential gene expression in keratinocytes; conditions: for number of genes downregulated / number of genes upregulated: 24 h
Procedure: (§2) Normal primary adult human keratinocytes derived from a donor were purchased from PromoCell (Heidelberg, Germany) and cultured in keratinocytes growth medium (Epilife+EDGS, Thermo Fisher Scientific, NY, USA). Keratinocytes cultures were maintained at 37° C. with 5% CO2 and ˜95% humidity.
Normal primary human keratinocytes were seeded in 6-well plates and incubated for 24 h. Cells were then washed in PBS (Thermo Fisher Scientific) and reincubated for 24 more hours in the presence of RGN1518 and RGN1538 (each at two different concentrations), vehicle control, or positive control. Following treatment, the cells were washed with PBS, collected and stored frozen at −80° C. before RNA extraction.
RNA was extracted using a Qiagen RNeasy kit (Qiagen, CA, USA) according to manufacturer's protocol.
18 vials containing RNA isolated from human epidermal keratinocytes and 18 vials containing RNA isolated from human fibroblasts were shipped to Thermo Fisher Scientific, Advanced BioMedical Laboratories (Cinnaminson, N.J.) on dry ice for Affymetrix Human Clariom D array processing.
The differential gene expression was obtained using a threshold of 0.05 for statistical significance (p-value) and a log fold change of expression with absolute value of at least 1. Gene expression was further analysed using Differential Expression Analysis and Pathway Analysis iPathwayGuide) by Advaita Bioinformatics Services (Plymouth, Mich.) in the context of pathways obtained from the Kyoto Encyclopedia of Genes and Genomes (KEGG) database (Release 84.0+/10-26, October 17) (Kanehisa et al., 2000; Kanehisa et al., 2002), gene ontologies from the Gene Ontology Consortium database (2017 Nov. 6) (Ashburner et al., 2000; Gene Ontology Consortium, 2001), miRNAs from the miRBase (Release 21) and […] (Targetscan version:Mouse:7.1, Human:7.1) databases (Agarwal et al., 2015; Nam et al., 2014; Griffiths-Jones et al., 2008; Kozomara and Griffiths-Jones, 2014; Friedman et al., 2009; Grimson et al., 2007), and diseases from the KEGG database (Release 84.0+/10-26, October 17) (Kanehisa et al., 2000; Kanehisa et al., 2002). All references are available in the reports for bioinformatics analysis of differential gene expression provided by Advaita Bioinformatics Services at the following link.

CUL4A [3] = target: CUL4A (Homo sapiens, UniProt Q13619); experiment: BPB-CUL4A AlphaLISA assay (cell free CUL4 inhibition assay); format: biochemical
Procedure: (§3) A BPB-CUL4A AlphaLISA assay was performed using the 54 compounds to determine their CUL4A inhibitory properties in vitro. Next, these 54 leads were tested for their cell-based inhibitory activity against CUL4A. A first cell-based assay involved the inhibition of DNA damage-binding protein 2 (DDB2) degradation in mouse embryonic fibroblast (MEF) cells in vitro. To determine the specificity of the compounds, another cell-based assay was performed to determine the inhibition of IKBa degradation in HeLa cells in vitro. Preferably, the compounds show high DDB2 inhibition and less inhibition of IKBa degradation. IkBa is a target of […], and this assay provides insight into the specificity of the compounds. These tests led to the selection of three active compounds that passed inhibition and selectivity thresholds and, thus, were suitable for use in cosmetic compositions. These were thymoquinone, lapachol and myrtucommulone C.
The Table below reports the ability of compounds to disrupt CUL4A activity in vitro (in a cell free CUL4 inhibition assay) ascertained from the BPB-CUL4A AlphaLISA assay. Activity above 30% was set to distinguish true hits from false positives.

[4] = test system: primary human keratinocytes; experiment: cytotoxicity assay (Cell Titer96 Aqueous One) on keratinocytes; format: cell-based; conditions: 24 h
Procedure: as §2, §1
The cytotoxicity assay on primary human keratinocytes from adult donor was performed after 24 h of culture in the presence of different concentrations of each compound, as indicated in FIG. 2A and Table 1.

CUL4A [5] = target: T1, CUL4A (Mus musculus, UniProt Q3TCH7); experiment: cell-based assay, inhibition of DDB2 degradation in MEF cells after UV; conditions: DDB2 remaining after UV treatment over baseline compared to DMSO control
T1 construct: endogenous in cells; host or cells: mouse embryonic fibroblast (MEF) cells
Procedure: as §3
In this cell-based assay, the % is DDB2 ([…]) remaining after UV treatment over baseline compared to a control group. In the DMSO control group, the DDB2 remaining % was between 20-30%.

T1 sequence (Q3TCH7 whole entry): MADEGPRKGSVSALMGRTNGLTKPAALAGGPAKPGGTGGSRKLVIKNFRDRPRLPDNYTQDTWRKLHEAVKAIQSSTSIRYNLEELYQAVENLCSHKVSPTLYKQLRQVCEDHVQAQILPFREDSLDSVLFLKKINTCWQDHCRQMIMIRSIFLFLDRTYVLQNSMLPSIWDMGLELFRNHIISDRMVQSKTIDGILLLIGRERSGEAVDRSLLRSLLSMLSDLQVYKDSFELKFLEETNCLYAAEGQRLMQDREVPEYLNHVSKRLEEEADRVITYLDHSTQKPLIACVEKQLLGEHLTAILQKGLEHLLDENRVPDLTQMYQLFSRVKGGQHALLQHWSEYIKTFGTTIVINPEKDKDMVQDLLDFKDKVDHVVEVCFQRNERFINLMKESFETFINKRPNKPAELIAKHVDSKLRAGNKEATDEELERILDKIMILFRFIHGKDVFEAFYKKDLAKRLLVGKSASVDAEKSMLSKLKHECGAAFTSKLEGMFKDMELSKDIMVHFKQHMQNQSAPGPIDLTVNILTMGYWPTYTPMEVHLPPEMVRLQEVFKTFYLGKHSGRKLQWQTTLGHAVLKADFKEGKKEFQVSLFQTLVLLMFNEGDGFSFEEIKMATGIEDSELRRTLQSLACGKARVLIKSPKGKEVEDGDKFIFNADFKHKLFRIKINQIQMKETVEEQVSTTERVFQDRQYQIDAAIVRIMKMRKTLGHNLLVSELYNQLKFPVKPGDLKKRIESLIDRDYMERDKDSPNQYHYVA
Chain of CUL4A (Homo sapiens, UniProt Q13619) (Q13619 whole entry, species assumed): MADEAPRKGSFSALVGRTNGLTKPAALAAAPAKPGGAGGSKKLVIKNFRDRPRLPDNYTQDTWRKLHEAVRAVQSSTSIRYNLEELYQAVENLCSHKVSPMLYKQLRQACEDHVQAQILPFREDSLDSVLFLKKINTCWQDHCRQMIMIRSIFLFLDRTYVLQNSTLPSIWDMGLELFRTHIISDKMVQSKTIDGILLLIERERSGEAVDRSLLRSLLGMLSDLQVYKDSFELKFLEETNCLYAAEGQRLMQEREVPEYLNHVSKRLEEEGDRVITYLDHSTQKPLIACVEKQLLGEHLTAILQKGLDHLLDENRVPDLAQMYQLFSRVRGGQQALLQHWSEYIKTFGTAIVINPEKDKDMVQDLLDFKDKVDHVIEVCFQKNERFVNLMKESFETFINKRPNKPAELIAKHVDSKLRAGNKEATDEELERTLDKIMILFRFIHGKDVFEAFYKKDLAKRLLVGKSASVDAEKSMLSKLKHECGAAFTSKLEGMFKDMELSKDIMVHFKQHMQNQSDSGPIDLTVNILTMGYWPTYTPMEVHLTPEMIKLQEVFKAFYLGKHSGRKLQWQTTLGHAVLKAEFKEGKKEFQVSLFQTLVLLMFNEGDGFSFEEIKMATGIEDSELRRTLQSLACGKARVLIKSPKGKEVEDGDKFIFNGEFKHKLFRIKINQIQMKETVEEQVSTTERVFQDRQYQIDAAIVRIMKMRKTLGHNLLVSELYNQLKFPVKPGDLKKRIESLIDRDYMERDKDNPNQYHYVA

With `CC(C)=CCC1=C(O)C(=O)c2ccccc2C1=O` [Lapachol, 2-hydroxy-3-(3-methylbut-2-enyl)naphthalene-1,4-dione] the “Avg (% of untreated)” value ([1]; 15.5 μM) was 99%, the “Avg (% of untreated)” value ([1]; 31.1 μM) was 98% and the “Avg (% of untreated)” value ([1]; 62.25 μM) was 100%. For the same molecule, the “concentrations that showed no cytotoxicity” value ([1]; unit not given) was “up to 62.25”, the “number of genes downregulated” value (human fibroblasts; 31 μM, 24 h, of 24905 genes) was 30 genes and the “number of genes upregulated” value (human fibroblasts; 31 μM, 24 h, of 24905 genes) was 104 genes. The “expression of RGCC and PTGS2 (regulation of fibroblast growth factor production)” value (human fibroblasts; at either concentration) was “upregulated”, the “number of genes involved in regulation of endothelial cell migration upregulated” value (human fibroblasts; out of 70 genes) was 3 genes and the “Avg (% Untreated)” value (human fibroblast cell; 3 microMolar) was 2076%. For the same molecule, the “gene expression in Metabolism of Xenobiotics by Cytochrome P450 and Steroid Hormone Biosynthesis Pathways” value [2] was “induced differential gene expression”, the “number of genes downregulated” value ([2]; 31 μM, of 24905 assessed genes) was 556 genes and the “number of genes upregulated” value ([2]; 31 μM, of 24905 assessed genes) was 250 genes. The “number of genes downregulated” value ([2]; 62 μM) was 461 genes, the “number of genes upregulated” value ([2]; 62 μM) was 258 genes and the “expression of phase-I detoxification and steroid hormone biosynthesis genes” value ([2]; CYP1A1, CYP1B1, CYP2BG, GSTM3, AKR1C1, AKR1C2, AKR1C3, AKR1B15) was “upregulated”. The “expression of genes important for normal differentiation and function of skin” value ([2]; FGF2, CSF1, SLCO2A1, SERPINB1) was “upregulated”, the “expression of genes associated with inflammation” value ([2]; IL6, IL1R2, IL2RG, IL1RL1) was “upregulated” and the “expression of Cell Cycle Pathway genes” value ([2]; MAD2L1, CDC20, CCNE2, CCNA2, CCNB2, CCNB1, BUB1, PLK1, CDC25C, BUB1B, TTK, ORC1, MCM6) was “downregulated”. For the same molecule, the “% Inhibitory Activity” value (CUL4A [3]) was 34.4%, the “Avg (% of untreated)” value ([4]; 15.5 μM) was 86% and the “Avg (% of untreated)” value ([4]; 31.1 μM) was 86%. For the same molecule, the “Avg (% of untreated)” value ([4]; 62.25 μM) was 84%, the “concentrations that showed no cytotoxicity” value ([4]; cytotoxic = inhibition of viability of more than 20%) was “up to 62.25 μM” and the “DDB2 remaining after UV (% of baseline)” value (CUL4A [5]) was 80%.

`CC(C)C(=O)c1c(O)c(C(C2=C(O)C(C)(C)C(=O)C(C)(C)C2=O)C(C)C)c(O)c2c1OC1=C(C(=O)C(C)(C)C(=O)C1(C)C)C2C(C)C` (centres unmarked) [Myrtucommulone C, myrtucommulone C] was tested, and the “Avg (% Untreated)” value (human fibroblast cell; 12.5 microMolar) was 1362%, the “% Inhibitory Activity” value (CUL4A [3]) was 48.9% and the “DDB2 remaining after UV (% of baseline)” value (CUL4A [5]) was 115%.

`NC(=O)c1cccnc1` [Niacinamide, reference compound] was tested, and the “Avg (% of untreated)” value ([1]; 3.1 mM) was 100%, the “Avg (% of untreated)” value ([1]; 6.2 mM) was 99% and the “Avg (% of untreated)” value ([1]; 12.5 mM) was 97%. For the same molecule, the “Avg (% of untreated)” value ([1]; 25 mM) was 100%, the “Avg (% of untreated)” value ([1]; 50 mM) was 91% and the “Avg (% of untreated)” value ([1]; 100 mM) was 89%. The “Avg (% of untreated)” value ([1]; 200 mM) was 61%, the “concentrations that showed no cytotoxicity” value [1] was “up to 100 mM” and the “Mineral Absorption Pathway” value (human fibroblasts) was “affected”. For the same molecule, the “vascular wound healing, spreading of epidermal cells and vasculature development (gene profile)” value (human fibroblasts) was “no effect”, the “Avg (% Untreated)” value (human fibroblast cell; 12.5 microMolar) was 2216% and the “expression of ASS1 and PTGS2” value [2] was “affected”. For the same molecule, the “expression of DNAJB9” value [2] was “downregulated”, the “expression of IL1RG and IL1RL1 receptors” value [2] was “no effect” and the “expression of IL6 and IL1RL1 receptor” value [2] was “upregulated”. For the same molecule, the “expression of TYMS” value [2] was “downregulated”, the “expression of VEGFA” value [2] was “no effect” and the “gene expression in Metabolism of Xenobiotics by Cytochrome P450 and Steroid Hormone Biosynthesis Pathways” value [2] was “no major effect”. The “expression of cell cycle genes” value ([2]; CDK1, PLK1, RB1, CDC25C, CDC25B, MAD2L1, CDKN2B, CCNA2, MAD1L1, TTK, ZBTB17, RBL1, CCNB1, CCNB2, BUB1, CDC20, PTTG1, BUB1B) was “downregulated only some of the genes”, the “expression of Golgi apparatus genes with the exception of MGAT4A” value ([2]; COG6, ARFGAP3, IFT20) was “not affected” and the “expression of FGF2” value ([2]; compared with RGN1518) was “upregulated FGF2 to lesser extend”. The “Avg (% of untreated)” value ([4]; 3.1 mM) was 105%, the “Avg (% of untreated)” value ([4]; 6.2 mM) was 106% and the “Avg (% of untreated)” value ([4]; 12.5 mM) was 104%. For the same molecule, the “Avg (% of untreated)” value ([4]; 25 mM) was 108%, the “Avg (% of untreated)” value ([4]; 50 mM) was 95% and the “Avg (% of untreated)” value ([4]; 100 mM) was 58%. The “Avg (% of untreated)” value ([4]; 200 mM) was 46% and the “concentrations that showed no cytotoxicity” value [4] was “up to 50 mM”.

With `CC1=CC(=O)C(C(C)C)=CC1=O` [Thymoquinone, 2-isopropyl-5-methylbenzo-1,4-quinone] the “Avg (% Untreated)” value (human fibroblast cell; 12.5 microMolar) was 2554%, the “% Inhibitory Activity” value (CUL4A [3]) was 70.4% and the “DDB2 remaining after UV (% of baseline)” value (CUL4A [5]) was 85%.
